Experimental data published in patent US20210253642A1, “CALPAIN MODULATORS AND THERAPEUTIC USES THEREOF BACKGROUND” (Blade Therapeutics, Inc., priority 2018, published 2021).
pIC50: −log10 of the molar value.

Tests used:
Format in all cases: biochemical
[1] = molecular target: T1, Human Calpain 1/NS1 (Homo sapiens, UniProt P07384); experiment: Calpain continuous fluorescence (FRET) inhibition assay; conditions: Column A; SensoLyte 520 FRET substrate, pH 7.5, 25C
T1 sequence (P07384 1-714): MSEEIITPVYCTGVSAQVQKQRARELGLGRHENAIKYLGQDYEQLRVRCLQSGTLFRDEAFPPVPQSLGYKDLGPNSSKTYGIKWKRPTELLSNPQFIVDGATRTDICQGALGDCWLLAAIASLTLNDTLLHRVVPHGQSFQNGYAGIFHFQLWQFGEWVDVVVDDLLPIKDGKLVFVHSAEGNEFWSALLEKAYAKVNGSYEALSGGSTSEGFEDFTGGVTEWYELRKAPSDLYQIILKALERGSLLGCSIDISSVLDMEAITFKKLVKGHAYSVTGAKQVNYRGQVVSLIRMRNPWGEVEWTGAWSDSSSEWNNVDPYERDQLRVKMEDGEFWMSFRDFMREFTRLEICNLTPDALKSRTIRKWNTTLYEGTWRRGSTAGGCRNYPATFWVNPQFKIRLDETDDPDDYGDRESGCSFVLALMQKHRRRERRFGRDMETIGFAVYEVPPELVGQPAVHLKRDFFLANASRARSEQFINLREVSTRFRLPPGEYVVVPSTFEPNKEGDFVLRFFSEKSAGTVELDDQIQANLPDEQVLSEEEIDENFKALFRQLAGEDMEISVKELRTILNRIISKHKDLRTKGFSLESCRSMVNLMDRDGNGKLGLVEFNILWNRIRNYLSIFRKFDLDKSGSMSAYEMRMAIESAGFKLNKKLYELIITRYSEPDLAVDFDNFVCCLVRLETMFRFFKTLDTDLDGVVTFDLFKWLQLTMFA
T1 sequence (P04632 1-268 partner): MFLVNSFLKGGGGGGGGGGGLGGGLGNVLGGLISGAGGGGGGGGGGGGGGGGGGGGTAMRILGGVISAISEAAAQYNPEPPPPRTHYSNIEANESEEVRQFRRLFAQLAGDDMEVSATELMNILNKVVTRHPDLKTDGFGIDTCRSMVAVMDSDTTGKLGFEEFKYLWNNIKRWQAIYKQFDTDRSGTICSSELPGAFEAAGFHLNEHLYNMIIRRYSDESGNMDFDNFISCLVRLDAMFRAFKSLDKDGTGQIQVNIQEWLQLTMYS
Description: (§1) Calpain 1, 2, and 9 activity and inhibition thereof was assessed by means of a continuous fluorescence assay. The SensoLyte 520 Calpain substrate (Anaspec Inc.) was optimized for detecting calpain activity. This substrate contains an internally quenched 5-FAM/QXLTM 520 FRET pair. Calpains 1, 2, and 9 cleave the FRET substrate into two separate fragments resulting in an increase of 5-FAM fluorescence that is proportional to calpain activity
(§2) Assays were typically setup in black 384-well plates using automated liquid handling as follows. Calpain assay base buffer typically contains 50 mM Tris, pH 7.5, 100 mM NaCl and 1 mM DTT. Inhibitors were serially diluted in DMSO and used to setup 2× mixtures with calpains in the aforementioned buffer. After incubation at ambient temperature (25C), the reaction was initiated by adding a 2× mix of the fluorescent peptide substrate and CaCl2) (required for in-situ calpain activation) in the same buffer. Reaction progress curve data were typically collected for 10 min using excitation/emission wavelengths of 490 nm/520 nm on SpectraMax i3x or the FLIPR-Tetra plate readers (Molecular Devices Inc.). Reaction rates were calculated from progress curve slopes typically over 1-5 min. Dose response curves (rate vs. log inhibitor concentration) were typically fit to a 4-parameter logistic function to extract IC50 values.

[2] = molecular target: T2, Human Calpain 2/NS1 (Homo sapiens, UniProt P17655); experiment: as above; conditions: Column B; SensoLyte 520 FRET substrate, pH 7.5, 25C
T2 sequence (P17655 1-700): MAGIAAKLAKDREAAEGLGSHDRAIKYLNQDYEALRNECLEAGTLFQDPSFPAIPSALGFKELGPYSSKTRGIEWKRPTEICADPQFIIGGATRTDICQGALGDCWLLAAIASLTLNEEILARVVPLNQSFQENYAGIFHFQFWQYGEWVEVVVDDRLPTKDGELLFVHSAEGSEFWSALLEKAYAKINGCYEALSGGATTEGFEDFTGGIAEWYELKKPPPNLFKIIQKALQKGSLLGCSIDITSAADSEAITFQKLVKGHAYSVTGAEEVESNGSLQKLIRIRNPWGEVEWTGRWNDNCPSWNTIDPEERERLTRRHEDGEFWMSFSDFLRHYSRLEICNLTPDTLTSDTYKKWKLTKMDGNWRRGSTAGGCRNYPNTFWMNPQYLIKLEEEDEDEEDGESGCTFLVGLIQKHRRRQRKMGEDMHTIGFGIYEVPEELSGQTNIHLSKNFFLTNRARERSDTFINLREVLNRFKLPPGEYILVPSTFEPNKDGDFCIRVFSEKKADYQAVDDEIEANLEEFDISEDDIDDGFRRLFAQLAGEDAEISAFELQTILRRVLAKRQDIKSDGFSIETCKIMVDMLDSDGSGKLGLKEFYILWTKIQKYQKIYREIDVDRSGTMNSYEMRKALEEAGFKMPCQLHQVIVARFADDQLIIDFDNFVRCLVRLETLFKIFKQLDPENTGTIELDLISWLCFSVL
T2 sequence (P04632 1-268 partner): T1 sequence (P04632 1-268 partner)
Description: as §1, §2

[3] = molecular target: T3, Human Calpain 9/NS1 (Homo sapiens, UniProt O14815); experiment: as above; conditions: Column C; SensoLyte 520 FRET substrate, pH 7.5, 25C
T3 sequence (O14815 1-690): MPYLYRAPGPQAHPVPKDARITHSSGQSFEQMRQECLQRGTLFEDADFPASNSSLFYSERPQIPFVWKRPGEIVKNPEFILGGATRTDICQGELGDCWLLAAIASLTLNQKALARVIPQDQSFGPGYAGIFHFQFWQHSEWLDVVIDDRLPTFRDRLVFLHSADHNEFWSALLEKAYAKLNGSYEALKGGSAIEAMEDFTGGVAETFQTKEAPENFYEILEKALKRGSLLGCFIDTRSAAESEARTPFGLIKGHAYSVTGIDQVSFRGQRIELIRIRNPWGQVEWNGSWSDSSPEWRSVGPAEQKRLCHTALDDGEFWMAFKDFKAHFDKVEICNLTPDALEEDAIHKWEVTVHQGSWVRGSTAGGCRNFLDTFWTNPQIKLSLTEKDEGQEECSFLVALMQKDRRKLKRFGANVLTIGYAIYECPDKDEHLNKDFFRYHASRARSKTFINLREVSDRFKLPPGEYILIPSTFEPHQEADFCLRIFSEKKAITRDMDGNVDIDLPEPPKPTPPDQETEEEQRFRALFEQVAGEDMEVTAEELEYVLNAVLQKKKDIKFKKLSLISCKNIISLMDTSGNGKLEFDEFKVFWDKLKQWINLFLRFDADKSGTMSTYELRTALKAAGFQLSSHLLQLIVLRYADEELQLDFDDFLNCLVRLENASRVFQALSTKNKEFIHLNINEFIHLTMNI
T3 sequence (P04632 1-268 partner): T1 sequence (P04632 1-268 partner)
Description: as §1, §2

[4] = molecular target: T4, Human Cathepsin B (Homo sapiens, UniProt P07858); experiment: Cathepsin continuous fluorescence inhibition assay; conditions: Column D; enzyme 25 nM, substrate 1 uM, pH 5.0, 30 minutes pre-incubation with inhibitor
T4 construct: purchased
Description: (§3) Cathepsin activity and inhibition thereof was assessed by means of a continuous fluorescence assay. All assays were run in 384 well format and utilized peptide substrates that liberate fluorescence upon protease catalyzed cleavage. FLIPR plate readers (Molecular Devices Inc.) were used to monitor reactions and extract initial rates which were then fit (four parameter logistic function) to obtain IC50 values. All enzymes are human. All enzymes and reagents were obtained commercially and are summarized in Tables 1 and 2 below along with assay conditions.

[5] = molecular target: T5, Human Cathepsin K (Homo sapiens, UniProt P43235); experiment: Cathepsin continuous fluorescence inhibition assay; conditions: Column E; enzyme 10 nM, substrate 1 uM, pH 5.5, 30 minutes pre-incubation with inhibitor
T5 construct: purchased
T5 sequence (P43235 115-329): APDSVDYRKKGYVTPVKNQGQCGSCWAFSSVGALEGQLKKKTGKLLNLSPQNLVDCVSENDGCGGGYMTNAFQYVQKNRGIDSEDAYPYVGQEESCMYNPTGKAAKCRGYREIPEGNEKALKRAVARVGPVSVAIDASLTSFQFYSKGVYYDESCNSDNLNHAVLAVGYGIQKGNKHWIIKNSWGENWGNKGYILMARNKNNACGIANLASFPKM
Description: as §3

[6] = molecular target: T6, Human Cathepsin L (Homo sapiens, UniProt P07711); experiment: Cathepsin continuous fluorescence inhibition assay; conditions: Column G; enzyme 0.025 nM, substrate 1 uM, pH 6.0, 30 minutes pre-incubation with inhibitor
T6 construct: purchased
T6 sequence (P07711 114-333): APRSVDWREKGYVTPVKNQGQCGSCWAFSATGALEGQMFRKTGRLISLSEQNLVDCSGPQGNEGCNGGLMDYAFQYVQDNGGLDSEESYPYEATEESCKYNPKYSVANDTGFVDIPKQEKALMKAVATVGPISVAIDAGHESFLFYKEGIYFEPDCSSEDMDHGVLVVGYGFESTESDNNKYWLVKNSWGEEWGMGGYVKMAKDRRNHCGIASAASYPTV
Description: as §3

[7] = molecular target: T7, Human Cathepsin S (Homo sapiens, UniProt P25774); experiment: Cathepsin continuous fluorescence inhibition assay; conditions: Column F; enzyme 6 nM, substrate 1 uM, pH 4.5, 30 minutes pre-incubation with inhibitor
T7 construct: purchased
T7 sequence (P25774 115-331): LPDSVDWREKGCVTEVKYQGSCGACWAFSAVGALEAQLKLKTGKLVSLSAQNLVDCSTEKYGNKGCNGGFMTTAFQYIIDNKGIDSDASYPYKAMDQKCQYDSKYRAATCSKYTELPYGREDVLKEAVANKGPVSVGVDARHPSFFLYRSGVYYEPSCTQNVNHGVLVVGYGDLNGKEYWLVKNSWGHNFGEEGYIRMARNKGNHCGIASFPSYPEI
Description: as §3

Row | pIC50 [1] | pIC50 [2] | pIC50 [3] | pIC50 [4] | pIC50 [5] | pIC50 [6] | pIC50 [7] | SMILES
1 | > 5.52 | > 5.52 | < 5.00 | > 5.52 | > 5.52 | > 5.52 | > 5.52 | CCCCCC/C=C\CC(=O)NCC(=O)N[C@H](C(=O)N[C@@H]1/C=C/C(=O)N[C@@H](C(C)C)C(=O)N[C@@H](Cc2ccc(O)cc2)C(=O)OC1)C(C)C [Compound 10, (Z)—N-(2-(((S)-1-(((3S,6S,11R,E)-3-(4-hydroxybenzyl)-6-isopropyl-2,5,8-trioxo-1-oxa-4,7-diazacyclododec-9-en-11-yl)amino)-3-methyl-1-oxobutan-2-yl)amino)-2-oxoethyl)dec-3-enamide]
2 | > 5.52 | > 5.52 | < 5.00 | > 5.52 | > 5.52 | > 5.52 | > 5.52 | CCCCCC/C=C\CC(=O)N[C@@H](Cc1ccc(O)cc1)C(=O)N[C@H](C(=O)N[C@@H]1/C=C/C(=O)N[C@@H](C(C)C)C(=O)N[C@@H](C)C(=O)OC1)C(C)C [Compound 16, (Z)—N—((S)-3-(4-hydroxyphenyl)-1-(((S)-1-(((3S,6S,11R,E)-6-isopropyl-3-methyl-2,5,8-trioxo-1-oxa-4,7-diazacyclododec-9-en-11-yl)amino)-3-methyl-1-oxobutan-2-yl)amino)-1-oxopropan-2-yl)dec-3-enamide]

Further lines, the compound ahead of its results:

Row | SMILES | pIC50 [1] | pIC50 [2] | pIC50 [3] | pIC50 [4] | pIC50 [5] | pIC50 [6] | pIC50 [7]
3 | CC(C)[C@@H]1NC(=O)/C=C/[C@@H](NC(=O)OC(C)(C)C)COC(=O)[C@H](Cc2ccccc2)NC1=O [Compound 5, Tert-butyl ((3S,6S,11R,E)-3-benzyl-6-isopropyl-2,5,8-trioxo-1-oxa-4,7-diazacyclododec-9-en-11-yl)carbamate] | < 5.00 | < 5.00 | < 5.00 | 5.00 to 5.52 | > 5.52 | > 5.52 | > 5.52
4 | CC(C)[C@@H]1NC(=O)/C=C/[C@@H](NC(=O)[C@@H](NC(=O)[C@H](Cc2ccc(O)cc2)NC(=O)OC(C)(C)C)C(C)C)COC(=O)[C@H](C)NC1=O [Compound 17, Tert-butyl ((S)-3-(4-hydroxyphenyl)-1-(((S)-1-(((3S,6S,11R,E)-6-isopropyl-3-methyl-2,5,8-trioxo-1-oxa-4,7-diazacyclododec-9-en-11-yl)amino)-3-methyl-1-oxobutan-2-yl)amino)-1-oxopropan-2-yl)carbamate] | > 5.52 | > 5.52 | < 5.00 | > 5.52 | > 5.52 | > 5.52 | > 5.52
5 | CCCCCC/C=C\CC(=O)N[C@@H](Cc1ccc(O)cc1)C(=O)N[C@H](C(=O)N[C@@H]1/C=C/C(=O)N[C@@H](C(C)C)C(=O)N[C@@H](Cc2ccc(O)cc2)C(=O)OC1)C(C)C [Compound 18, (Z)—N—((S)-1-(((S)-1-(((3S,6S,11R,E)-3-(4-hydroxybenzyl)-6-isopropyl-2,5,8-trioxo-1-oxa-4,7-diazacyclododec-9-en-11-yl)amino)-3-methyl-1-oxobutan-2-yl)amino)-3-(4-hydroxyphenyl)-1-oxopropan-2-yl)dec-3-enamide] | > 5.52 | > 5.52 | < 5.00 | > 5.52 | > 5.52 | > 5.52 | > 5.52
6 | CC(C)[C@@H]1NC(=O)/C=C/[C@@H](NC(=O)[C@H](Cc2ccccc2)NC(=O)OC(C)(C)C)COC(=O)[C@H](Cc2ccc(O)cc2)NC1=O [Compound 14, tert-butyl ((s)-1-(((3S,6S,11R,E)-3-(4-hydroxybenzyl)-6-isopropyl-2,5,8-trioxo-1-oxa-4,7-diazacyclododec-9-en-11-yl)amino)-1-oxo-3-phenylpropan-2-yl)carbamate] | < 5.00 | < 5.00 | < 5.00 | 5.00 to 5.52 | > 5.52 | > 5.52 | > 5.52
